What was measured:
[1] = tested on: TNFα secretion in human peripheral blood lymphocytes; assay: Lipopolysaccharide-stimulated TNFα release from human peripheral blood lymphocytes; format: cell-based; conditions: Lymphocyte; LPS-stimulated TNFα release from human PBL
Description: The compounds of structural formula (II) also were tested for an ability to reduce TNFα secretion in human peripheral blood lymphocytes. The ability to reduce TNFα secretion is related to the EC50 values i.e., the effective concentration pf the compound capable of inhibiting 50% of the total TNFα).
To assess the ability of a compound to reduce TNFα secretion in human peripheral blood lymphocytes (PBL), the following tests were performed.
Heparinized blood (approximately 30 mL) drawn from human volunteers was mixed 1:1 with Dulbecco's modified phosphate-buffered saline. This mixture was mixed 1:1 with HISTOPAQUE® and centrifuged at 1,500 rpm at room temperature without braking in the swinging bucket of a Beckman model TJ6 centrifuge. Erythrocytes were centrifuged to the bottom of the tubes, and serum remained at the surface of the tubes. A layer containing lymphocytes sedimented between the serum and HISTOPAQUE® layers, and was removed by aspiration to a fresh tube. The cells were quantified and adjusted to […] and a 100 μL aliquot is placed into the wells of a 96 well plate. Test compounds and RPMI media (Gibco/BRL Life Sciences) are added to each of the wells 15 minutes prior to addition of bacterial LPS ([…]). The mixture was allowed to incubate for 20 hours at 37° C. in a humidified chamber. The cells then were separated by centrifuging at 800 rpm for 5 minutes at room temperature. An aliquot of 180 μL of supernatant was transferred to a new plate for determination of TNFα concentration. TNFα protein in the cell supernatant fluids was measured using a commercially available enzyme-linked immunosorbent assay (ELISA) (CYTOSCREEN® Immunoassay Kit from Biosource International).
The cell-based assay provided the following results for various pyrrolidine compounds of the present invention. The EC50 values (i.e., effective concentration of the compound capable of inhibiting 50% of the total TNFα) illustrate the ability of the present compounds to inhibit LPS-stimulated TNFα release from human PBL.

recombinant human PDE4 = target: T1, recombinant human PDE4; assay: PDE4 inhibition, charcoal separation [32P]cAMP phosphodiesterase assay; format: biochemical
T1 construct: PDE4 IC50; other: human recombinant PDE4
Description: The compounds of structural formula (II) were tested for an ability to inhibit PDE4. The ability of a compound to inhibit PDE4 activity is related to the IC50 value for the compound, i.e., the concentration of inhibitor required for 50% inhibition of enzyme activity. The IC50 value for compounds of structural formula (II) were determined using recombinant human PDE4.
Recombinant production of human PDE1B, PDE2, PDE4A, PDE4B, PDE4C, PDE4D, PDE5, and PDE7 was carried out similarly to that described in Example 7 of U.S. Pat. No. 5,702,936, incorporated herein by reference, except that the yeast transformation vector employed, which is derived from the basic ADH2 plasmid described in Price et al., Methods in Enzymology, 185, pp. 308-318 (1990), incorporated yeast ADH2 promoter and terminator sequences and the Saccharomyces cerevisiae host was the protease-deficient strain BJ2-54 deposited on Aug. 31, 1998 with the American Type Culture Collection, Manassas, Va., under accession number ATCC 74465. Transformed host cells were grown in 2×SC-leu medium, pH 6.2, with trace metals, and vitamins. After 24 hours, YEP medium-containing glycerol was added to a final concentration of 2×YET/3% glycerol. Approximately 24 hr later, cells were harvested, washed, and stored at −70° C.
Phosphodiesterase activity of the preparations was determined as follows. PDE assays utilizing a charcoal separation technique were performed essentially as described in Loughney et al. (1996). In this assay, PDE activity converts [32P]cAMP or [32P]cGMP to the corresponding [32P]5′-AMP or [32P]5′-GMP in proportion to the amount of PDE activity present. The [32P]5′-AMP or [32P]5′-GMP then was quantitatively converted to free [32P]phosphate and unlabeled adenosine or guanosine by the action of snake venom 5′-nucleotidase. […] The assay was performed at 30° C. in a 100 μL reaction mixture containing (final concentrations) 40 mM Tris HCl (pH 8.0), 1 μM ZnSO4, 5 mM MgCl2, and 0.1 mg/mL bovine serum albumin (BSA). Alternatively, in assays assessing PDE1-specific activity, incubation mixtures further incorporated the use of 0.1 mM CaCl2 and 10 μg/mL calmodulin. PDE enzyme was present in quantities that yield <30% total hydrolysis of substrate (linear assay conditions). The assay was initiated by addition of substrate (1 mM [32P]cAMP or cGMP), and the mixture was incubated for 12 minutes. Seventy-five (75) μg of Crotalus atrox venom then was added, and the incubation was continued for 3 minutes (15 minutes total). The reaction was stopped by addition of 200 μL of activated charcoal (25 mg/mL suspension in 0.1 M […], pH 4). After centrifugation (750×g for 3 minutes) to sediment the charcoal, a sample of the supernatant was taken for radioactivity determination in a scintillation counter and the PDE activity was calculated.
Inhibitor analyses were performed similarly to the method described in Loughney et al., J. Biol. Chem., 271, pp. 796-806 (1996), except both cGMP and cAMP were used, and substrate concentrations were kept below 32 nM, which is far below the Km of the tested PDEs.

SMILES	EC50 [1] [nM]	IC50 (recombinant human PDE4) [nM]
COC(=O)N1C[C@@H](c2ccc(OC)c(OC3CCCC3)c2)[C@](C)(CNCc2ccccc2)C1 [Example 1, Methyl (4S,3R)-4-(3-cyclopentyloxy-4-methoxyphenyl)-3-methyl-3-{[benzylamino]methyl]}pyrrolidine carboxylate]	776	1400
COC(=O)N1C[C@@H](c2ccc(OC)c(OC3CCCC3)c2)[C@](C)(CN)C1 [Example 2, Methyl (4S,3R)-3-(aminomethyl)-4-(3-cyclopentyloxy-4-methoxyphenyl)-3-methylpyrrolidinecarboxylate]	142	28.5
COC(=O)N1CC(c2ccc(OC)c(OC3CCCC3)c2)[C@](C)(CNS(C)(=O)=O)C1 (stereo partly drawn) [Example 3]		3180
COC(=O)N1C[C@@H](c2ccc(OC)c(OC3CCCC3)c2)[C@](C)(CNC(C)=O)C1 [Example 4, Methyl (4S,3R)-3-[(acetylamino)methyl]-4-(3-cyclopentyloxy-4-methoxyphenyl)-3-methylpyrrolidine-carboxylate]		3090
COC(=O)N1C[C@@H](c2ccc(OC)c(OC3CCCC3)c2)[C@](C)(CNC(=O)c2ccccc2)C1 [Example 5, Methyl (4S,3R)-4-(3-cyclopentyloxy-4-methoxyphenyl)-3-methyl-3-[(phenylcarbonylamino)methyl]pyrrolidinecarboxylate]		2510
COC(=O)N1CC(c2ccc(OC)c(OC3CCCC3)c2)[C@](C)(CNS(=O)(=O)c2ccccc2)C1 (stereo partly drawn) [Example 6]	730	506
COc1ccc([C@@H]2CN(Cc3ccccc3)C[C@@]2(C)C(C)N)cc1OC1CCCC1 (stereo partly drawn) [Example 8, 1-[(3S,4S)-4-(3-Cyclopentyloxy-4-methoxyphenyl)-3-methyl-1-benzylpyrrolidin-3-yl]ethylamine]	1560	673
COc1ccc([C@@H]2CN(Cc3ccccc3)C[C@@]2(C)C(C)NC(=O)c2ccccc2)cc1OC1CCCC1 (stereo partly drawn) [Example 10, N-{1-[(3S,4S)-4-(3-Cyclopentyloxy-4-methoxyphenyl)-3-methyl-1-benzylpyrrolidin-3-yl]ethyl}benzamide]		2950
COc1ccc([C@@H]2CN(Cc3ccccc3)C[C@@]2(C)C(C)NC(=O)c2ccccc2)cc1OC1CCCC1 (stereo partly drawn) [Example 11, N-{1-[(3S,4S)-4-(3-Cyclopentyloxy-4-methoxyphenyl)-3-methyl-1-benzylpyrrolidin-3-yl]ethyl}benzamide]		27100
COc1ccc([C@@H]2CN(Cc3ccccc3)C[C@@]2(C)C(C)NC(C)=O)cc1OC1CCCC1 (stereo partly drawn) [Example 12, N-{1-[(3S,4S)-4-(3-Cyclopentyloxy-4-methoxyphenyl)-3-methyl-1-benzylpyrrolidin-3-yl]ethyl}acetamide]		14700
COc1ccc([C@@H]2CN(Cc3ccccc3)C[C@@]2(C)C(C)NC(C)=O)cc1OC1CCCC1 (stereo partly drawn) [Example 13, N-{1-[(3S,4S)-4-(3-Cyclopentyloxy-4-methoxyphenyl)-3-methyl-1-benzylpyrrolidin-3-yl]ethyl}acetamide]		2440
COC(=O)N1C[C@@H](c2ccc(OC)c(OC3CCCC3)c2)[C@](C)(C(C)NC(C)=O)C1 (stereo partly drawn) [Example 14, 3-(S)-(1-Acetylaminoethyl)-4-(S)-(3-cyclopentyloxy-4-methoxyphenyl)-3-methylpyrrolidine-1-carboxic Acid Methyl Ester]	598	

Further lines, results first:

EC50 [1] [nM]	IC50 (recombinant human PDE4) [nM]	SMILES
	8970	COc1ccc([C@@H]2CN(Cc3ccccc3)C[C@@]2(C)C(C)NS(=O)(=O)c2ccccc2)cc1OC1CCCC1 (stereo partly drawn) [Example 15, {1-[(3S,4S)-4-(3-Cyclopentyloxy-4-methoxyphenyl)-3-methyl-1-benzylpyrrolidin-3-yl]ethyl}-(phenylsulfonyl)amine]
	9080	COc1ccc(C2CN(Cc3ccccc3)C[C@@]2(C)C(C)NS(=O)(=O)c2ccccc2)cc1OC1CCCC1 (stereo partly drawn) [Example 16, {1-[(3S,4S)-4-(3-cyclopentyloxy-4-methoxyphenyl)-3-methyl-1-benzylpyrrolidin-3-yl]ethyl}-(phenylsufonyl)amine]
	8660	COc1ccc([C@@H]2CN(Cc3ccccc3)C[C@@]2(C)C(C)NS(C)(=O)=O)cc1OC1CCCC1 (stereo partly drawn) [Example 17, {1-[(3S,4S)-4-(3-Cyclopentyloxy-4-methoxyphenyl)-3-methyl-1-benzylpyrrolidin-3-yl]ethyl}-(methylsulfonyl)amine]
	7390	COc1ccc([C@@H]2CN(Cc3ccccc3)C[C@@]2(C)C(C)NS(C)(=O)=O)cc1OC1CCCC1 (stereo partly drawn) [Example 18, {1-[(3S,4S)-4-(3-Cyclopentyloxy-4-methoxyphenyl)-3-methyl-1-benzylpyrrolidin-3-yl]ethyl}-(methylsulfonyl)amine]
	2200	COC(=O)N1C[C@@H](c2ccc(OC)c(OC3CCCC3)c2)[C@](C)(CNC(=O)OC(C)(C)C)C1 [Example 21]
	5890	COc1ccc(C2CN(Cc3ccccc3)C[C@]2(C)CN(C)C)cc1OC1CCCC1 (stereo partly drawn) [Example 22]
	7550	CNC[C@]1(C)CN(Cc2ccccc2)CC1c1ccc(OC)c(OC2CCCC2)c1 (stereo partly drawn) [Example 23]
76.5	22.9	COC(=O)N1C[C@@H](c2ccc(OC)c(OC3Cc4ccccc4C3)c2)[C@](C)(CN)C1 [Example 24]
85.5	53	COC(=O)N1C[C@@H](c2ccc(OC)c(OCC3CC3)c2)[C@](C)(CN)C1 [Example 25]
450	235	COc1ccc([C@@H]2CN(C(=O)C(C)(C)O)C[C@@]2(C)CN)cc1OCC1CC1 [Example 26]
816	479	COc1ccc([C@@H]2CN(C(=O)CO)C[C@@]2(C)CN)cc1OCC1CC1 [Example 27]
1390	591	CCNC[C@]1(C)CN(C(=O)OC)C[C@H]1c1ccc(OC)c(OC2Cc3ccccc3C2)c1 [Example 28]

— patent US6680336B2, “Cyclic AMP-specific phosphodiesterase inhibitors” (ICOS Corporation, priority 1999, dated 2004)
